For experiment [1], the system named is PBQ-induced writhing in the mouse. The experiment is described as follows: Phenylbenzoquinone-induced (PBQ) writhing model.
In experiment [2] the test system is CFA induced inflammatory pain in the rat. In words: Complete Freund's Adjuvant (CFA) induced inflammatory pain model. The format is in vivo. The protocol: In this rat model of inflammatory pain, 100 uL of CFA diluted 1:1 with phosphate buffered saline was injected into the subplantar region of the right hind paw on Day 1. On day 3, test compounds were administered orally and rats were assessed for their reaction to a mechanical stimuli applied via an Analgesy® meter. Injection of CFA increased the rats' reactivity to painful stimuli and this was reflected in a decrease in the amount of pressure they could tolerate prior to withdrawing their paw from the apparatus (hyperalgesia). An anti-hyperalgesic activity of the test compound was denoted by an increase in the amount of pressure they can tolerate prior to withdrawing their paw from the apparatus. The mean±SEM for each treatment group was determined and a Dunnett test was applied for comparison between vehicle and treated groups. Differences were considered significant at P<0.05. (see Bertorelli et al. 1999 Brit Journ Pharmacol 128:1252).

Where “and” joins values, the source holds several entries; their conditions need not be identical. Identical values can stand only once.

As to `Cc1cc2cc(C(=O)c3ccncn3)sc2n1CCN1CCOCC1` [Compound I-34], the “Number of Writhes” value in experiment [1] (Dose 30, IP) came to 3.4 ± 0.97.
`COc1ccc(C(=O)c2cc3cc(C)n(CCN4CCOCC4)c3s2)cc1` [Compound I-36]: the “Post CFA PWT (grams)” value in experiment [2] (3 mg/kg PO) was 114.3 ± 11.8 grams; in experiment [2] (10 mg/kg PO), 90.7 ± 10.4 grams; in experiment [2] (30 mg/kg PO), 157.3 ± 11.4 grams; in experiment [2] (56 mg/kg PO), 191 ± 12.1 grams. In addition, the “Number of Writhes” value in experiment [1] (Dose 3, PO) stood at 14.5 ± 1.59; in experiment [1] (Dose 10, PO), 12.1 ± 2.8; in experiment [1] (Dose 30, PO), 7.3 ± 2.5.
Regarding `Cc1cc2cc(C(=O)c3cccc(Cl)c3Cl)sc2n1CCCNS(C)(=O)=O` [Compound I-37], in experiment [1] (Dose 30, PO), the “Number of Writhes” value was determined as 13.0 ± 1.65.
For the compound `Cc1cc2cc(C(=O)c3cccc(Cl)c3Cl)sc2n1S(=O)(=O)N(C)C` [Compound I-41], the “Number of Writhes” value in experiment [1] (Dose 30, IP) amounted to 5.91 ± 2.04.
Turning to `CCS(=O)(=O)n1c(C)cc2cc(C(=O)c3cccnc3Cl)sc21` [Compound I-43], the “Number of Writhes” value in experiment [1] (Dose 30, PO) is 13.8 ± 1.88.
`COc1ccc(C(=O)c2cc3cc(C)n(CCCNS(C)(=O)=O)c3s2)cc1` [Compound I-44]: the entries for the “Post CFA PWT (grams)” value in experiment [2] (10 mg/kg PO), in experiment [2] (30 mg/kg PO) and in experiment [2] (56 mg/kg PO) were 164.4 ± 8.4 grams, 153.7 ± 10.7 grams and 150 ± 13.8 grams, respectively. The “Number of Writhes” value in experiment [1] (Dose 3, PO) is 13.9 ± 1.4; in experiment [1] (Dose 10, PO), 9.4 ± 2.6; in experiment [1] (Dose 30, PO), 8.25 ± 2.54 and 9.7 ± 1.7.
Regarding `COc1ccc(C(=O)c2cc3cc(C)n(CCN4CCOCC4)c3s2)cn1` [Compound I-58], the “Post CFA PWT (grams)” value in experiment [2] (60 mg/kg PO) amounted to 170.3 ± 19.7 grams. In addition, the “Number of Writhes” value in experiment [1] (Dose 30, IP) turned out to be 1.1 ± 0.38; in experiment [1] (Dose 30, PO), 15.9 ± 2.7.
For `COc1ccc(C(=O)c2cc3cc(C)n(CCN4CCOCC4)c3s2)c(F)c1` [Compound I-68], the “Post CFA PWT (grams)” value in experiment [2] (60 mg/kg PO) was determined as 178.7 ± 24.4 grams. The “Number of Writhes” value stood at 9.6 ± 2.2 in experiment [1] (Dose 3, PO) and 5.92 ± 1.55 in experiment [1] (Dose 10, PO).
Consider `COc1ccc(C(=O)c2cc3cc(C)n(CCN4CCOCC4)c3s2)c(Cl)c1` [Compound I-70], for which the “Post CFA PWT (grams)” value in experiment [2] (60 mg/kg PO) turned out to be 195.7 ± 16.4 grams. Besides, the “Number of Writhes” value in experiment [1] (Dose 30, PO) was 3.2 ± 1.57.
Turning to `COc1ccc(C(=O)c2cc3cc(C)n(CCN4CCCCC4)c3s2)cc1` [Compound I-78], the “Post CFA PWT (grams)” value in experiment [2] (60 mg/kg PO) turned out to be 181.7 ± 22.3 grams.
In the case of `COc1ccc(C(=O)c2cc3cc(C)n(CCCNS(C)(=O)=O)c3s2)c(F)c1` [Compound I-87], in experiment [2] (60 mg/kg PO), the “Post CFA PWT (grams)” value is on record as 100.7 ± 11.3 grams. In addition, the “Number of Writhes” value in experiment [1] (Dose 30, PO) came to 17.2 ± 2.5.
`CCOc1ccc(C(=O)c2cc3cc(C)n(CCN4CCOCC4)c3s2)c(F)c1` [Compound I-89]: the “Post CFA PWT (grams)” value in experiment [2] (60 mg/kg PO) is 178.7 ± 19.6 grams.
The same measure, in the same setting: under `CCOc1ccc(C(=O)c2cc3cc(C)n(CCCNS(C)(=O)=O)c3s2)c(F)c1` [Compound I-95] stands 111.7 ± 20.5 grams.
On to `COc1ccc(C(=O)c2cc3cc(C)n(CCCNS(C)(=O)=O)c3s2)cn1` [Compound I-109], for which the “Post CFA PWT (grams)” value in experiment [2] (60 mg/kg PO) is 132 ± 12.3 grams. The “Number of Writhes” value in experiment [1] (Dose 3, PO) was 13.3 ± 2.3; in experiment [1] (Dose 10, PO), 8.93 ± 2.28; in experiment [1] (Dose 30, PO), 5.78 ± 1.75.
`Cc1cc2cc(C(=O)c3ccc(OC(C)C)cc3)sc2n1CCN1CCOCC1` [Compound I-111]: in experiment [2] (60 mg/kg PO), the “Post CFA PWT (grams)” value is listed as 140.7 ± 13.7 grams.
For the compound `Cc1ccc(C(=O)c2cc3cc(C)n(CCN4CCOCC4)c3s2)cc1` [Compound I-124], the “Post CFA PWT (grams)” value in experiment [2] (60 mg/kg PO) was 196.7 ± 27.3 grams.
For the compound `COc1ccc(C(=O)c2cc3cc(C)n(CC4CCOCC4)c3s2)cn1` [Compound I-144], the “Number of Writhes” value in experiment [1] (Dose 3, PO) was found to be 5.04 ± 1.8; in experiment [1] (Dose 10, PO), 3.24 ± 1.08; in experiment [1] (Dose 30, PO), 1.8 ± 0.72.
